Results: patent US20140106421A1, “Methods Of Producing Carboxylic Acids And/Or Alcohols” (Industrial Technology Research Institute, priority 2012, published 2014)

Legend:
[1] = Extraction of butyric acid from CGM medium with TOPO in oleyl alcohol (Example 1.2); type: physicochemical; conditions: 24 hours, 37° C.
Procedure: The butyric acid distribution ratio (D) was calculated by dividing the concentration of butyric acid in the organic medium by the concentration of butyric acid in the aqueous medium:
[…] The pH of the culture medium was further adjusted to a value ranging from 4 to 6 with 4 N NaOH and 4 N HCl.
After 24 hours, the concentrations of butyric acid in the CGM culture medium (the aqueous phase) and in the TOPO solution (the organic phase) were measured by HPLC.

[2] = tested on: PVA-immobilized clostridium tyrobutyricum; experiment: Extractive fermentation-column reactor, 1 M TOPO or TBP in oleyl alcohol (Example 4C); type: cell-based; conditions: 1 M extractant in oleyl alcohol as organic phase; 37° C., 100 hours
Procedure: In addition, the upper region of the reactor was filled with either 40 ml of 1 M TOPO in oleyl alcohol or 40 ml 1 M TBP in oleyl alcohol. The fermentation was conducted at 37° C. for 100 hours.

[3] = Extraction of butyric acid from CGM medium with TOA in oleyl alcohol (Example 1.1); type: physicochemical; conditions: CGM medium with 5% butyric acid, pH 4, 37° C.
Procedure: 50 ml of CGM culture medium (basal medium, see the table provided immediately below) containing 5% of butyric acid (the pH of the CGM medium decreased to 4 after the addition of the butyric acid) was mixed with 5 ml of 0.7 M, 1 M, […] of trioctylamine (C24H51N, CAS No. 1116-76-3, abbreviation: TOA) in oleyl alcohol at 37° C.
The concentrations of butyric acid in the CGM culture medium (i.e., the aqueous phase) and in the trioctylamine solution (i.e., the organic phase) were measured every 12 hours by high performance liquid chromatography (HPLC).
The butyric acid distribution ratio (D) was calculated by dividing the concentration of butyric acid in the organic medium by the concentration of butyric acid in the aqueous medium: […]

[4] = tested on: C. tyrobutyricum ATCC25755; experiment: Free-cell culture with organic solution on top of the culture medium (Example 2); type: cell-based; conditions: free cells, 24 hours at 37° C.
Procedure: The culture medium was then inoculated with 0.08 ml of bacterial stock comprising C. tyrobutyricum ATCC25755. The initial optical density (OD) measured at a wavelength of 600 nm was 0.2. After inoculation, 0.8 ml of an organic solution (as listed in the Table 4 below) was added to the top of the culture medium. The bacteria was then cultured in Tecan infinite 200 Pro Multimode Microplate Readers (Tecan Group Ltd., Switzerland) for 24 hours at 37° C., with shaking once every 30 minutes.

[5] = tested on: PVA-immobilized clostridium tyrobutyricum; experiment: 2-liter tank fermentor extractive fermentation (Example 5); type: cell-based; conditions: 37° C., 40 hours
Source text: A 2-liter tank fermentor 500 as illustrated in FIG. 5 was used in this Example. […] The medium was then purged with N2 to reach anaerobiosis. The pH of the basal medium was further adjusted to 6.0 with 2 N NaOH. Subsequently, the medium was inoculated with about 100 g of PVA-immobilized C. tyrobutyricum cell beads prepared as described above. An extractive fermentation-column reactor similar to the one shown in FIG. 5 was used in this example. The lower region of the reactor was filled with 700 ml of the basal medium containing glucose as the substrate and inoculated with about 70 ml of PVA-immobilized clostridium tyrobutyricum. In addition, the upper region of the reactor was filled with either 700 ml of 1 M TOPO in oleyl alcohol or 700 ml of oleyl alcohol without TOPO. The fermentation was conducted at 37° C. for 40 hours, and the pH of the fermentation medium was not controlled in this example.

CCCCCCCCP(=O)(CCCCCCCC)CCCCCCCC [TOPO, trioctylphosphine oxide]
butyric acid distribution ratio ([1]; TOPO 0.1 M in oleyl alcohol, butyric acid 1%, pH 4): 1.45
butyric acid distribution ratio ([1]; TOPO 0.1 M in oleyl alcohol, butyric acid 1%, pH 5): 0.31
butyric acid distribution ratio ([1]; TOPO 0.1 M in oleyl alcohol, butyric acid 1%, pH 6): 0.00
butyric acid distribution ratio ([1]; TOPO 0.1 M in oleyl alcohol, butyric acid 2%, pH 4): 2.12
butyric acid distribution ratio ([1]; TOPO 0.1 M in oleyl alcohol, butyric acid 2%, pH 5): 0.37
butyric acid distribution ratio ([1]; TOPO 0.1 M in oleyl alcohol, butyric acid 2%, pH 6): 0.05
butyric acid distribution ratio ([1]; TOPO 0.1 M in oleyl alcohol, butyric acid 3%, pH 4): 2.17
butyric acid distribution ratio ([1]; TOPO 0.1 M in oleyl alcohol, butyric acid 3%, pH 5): 0.26
butyric acid distribution ratio ([1]; TOPO 0.1 M in oleyl alcohol, butyric acid 3%, pH 6): 0.00
butyric acid distribution ratio ([1]; TOPO 0.5 M in oleyl alcohol, butyric acid 1%, pH 4): 1.91
butyric acid distribution ratio ([1]; TOPO 0.5 M in oleyl alcohol, butyric acid 1%, pH 5): 0.36
butyric acid distribution ratio ([1]; TOPO 0.5 M in oleyl alcohol, butyric acid 1%, pH 6): 0.03
butyric acid distribution ratio ([1]; TOPO 0.5 M in oleyl alcohol, butyric acid 2%, pH 4): 2.82
butyric acid distribution ratio ([1]; TOPO 0.5 M in oleyl alcohol, butyric acid 2%, pH 5): 0.37
butyric acid distribution ratio ([1]; TOPO 0.5 M in oleyl alcohol, butyric acid 2%, pH 6): 0.06
butyric acid distribution ratio ([1]; TOPO 0.5 M in oleyl alcohol, butyric acid 3%, pH 4): 2.90
butyric acid distribution ratio ([1]; TOPO 0.5 M in oleyl alcohol, butyric acid 3%, pH 5): 0.35
butyric acid distribution ratio ([1]; TOPO 0.5 M in oleyl alcohol, butyric acid 3%, pH 6): 0.04
butyric acid distribution ratio ([1]; TOPO 1 M in oleyl alcohol, butyric acid 1%, pH 4): 2.67
butyric acid distribution ratio ([1]; TOPO 1 M in oleyl alcohol, butyric acid 1%, pH 5): 0.42
butyric acid distribution ratio ([1]; TOPO 1 M in oleyl alcohol, butyric acid 1%, pH 6): 0.06
butyric acid distribution ratio ([1]; TOPO 1 M in oleyl alcohol, butyric acid 2%, pH 4): 3.88
butyric acid distribution ratio ([1]; TOPO 1 M in oleyl alcohol, butyric acid 2%, pH 5): 0.43
butyric acid distribution ratio ([1]; TOPO 1 M in oleyl alcohol, butyric acid 2%, pH 6): 0.04
butyric acid distribution ratio ([1]; TOPO 1 M in oleyl alcohol, butyric acid 3%, pH 4): 4.20
butyric acid distribution ratio ([1]; TOPO 1 M in oleyl alcohol, butyric acid 3%, pH 5): 0.35
butyric acid distribution ratio ([1]; TOPO 1 M in oleyl alcohol, butyric acid 3%, pH 6): 0.04
Cells growth (Δ OD600) [2]: 6.0

CCCCCCCCN(CCCCCCCC)CCCCCCCC [TOA, trioctylamine]
Butyric acid distribution ratio (D) ([3]; 0.7M TOA in oleyl alcohol): 7.38
Butyric acid distribution ratio (D) ([3]; 1M TOA in oleyl alcohol): 10.21
Butyric acid distribution ratio (D) ([3]; 1.4M TOA in oleyl alcohol): 13.82

CCCCCCCC/C=C\CCCCCCCCO [Oleyl alcohol only, oleyl alcohol]
Glucose consumption rate % [4]: 80.7%
Bacterial Growth rate (OD/h) ([4]; OD at 600 nm): 0.08 OD/h
% of glucose consumed [5]: 100%
Distribution ratio of butryic acid [5]: 0.86
